How the values were obtained:
[1] = target: T1, A1-adenosine receptor human recombinant (Homo sapiens, UniProt P30542); assay: Radioligand binding assay 1, human recombinant A1 adenosine receptor; details: [3H]CCPA
T1 construct: expressed in transfected cells
T1 sequence (P30542 1-326): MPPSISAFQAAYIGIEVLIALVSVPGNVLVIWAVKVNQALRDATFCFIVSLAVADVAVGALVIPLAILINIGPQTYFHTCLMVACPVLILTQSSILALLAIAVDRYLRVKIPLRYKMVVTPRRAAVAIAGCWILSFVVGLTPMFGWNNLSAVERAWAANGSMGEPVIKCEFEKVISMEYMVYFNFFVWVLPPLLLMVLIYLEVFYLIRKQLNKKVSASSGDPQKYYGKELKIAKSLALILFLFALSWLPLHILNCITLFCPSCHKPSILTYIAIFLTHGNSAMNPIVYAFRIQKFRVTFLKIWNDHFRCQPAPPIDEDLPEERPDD
Method: (§1) Rat brain preparations were used for A1- and A2A adenosine receptor (AR) and human recombinant cell samples for A1-, A2A- and A3 adenosine receptor radioligand binding studies. Affinity and selectivity was tested in displacement experiments with following radioligands: [^3H]CCPA for A1-adenosine receptors, [^3H]MSX-2 for A2A-receptors and [^3H]PSB-11 for A3-receptors. Results of these experiments are depicted in table 2b (human data) and table 2a (rat data). Radioligand binding test systems are e.g. generally described by Muller et al., Curr. Pharm. Des., 1996, 2, 501 and Weyler et al., ChemMedChem 2006, 1, 891 and references cited therein) These documents are incorporated herein by reference.

[2] = target: T2, A2A-adenosine receptor human recombinant (Homo sapiens, UniProt P29274); assay: Radioligand binding assay 1, human recombinant A2A adenosine receptor; details: human recombinant, [3H]MSX-2; read-out: A2A-adenosine receptor human recombinant [3H] MSX-2 Ki
T2 construct: expressed in transfected cells
T2 sequence (P29274 whole entry): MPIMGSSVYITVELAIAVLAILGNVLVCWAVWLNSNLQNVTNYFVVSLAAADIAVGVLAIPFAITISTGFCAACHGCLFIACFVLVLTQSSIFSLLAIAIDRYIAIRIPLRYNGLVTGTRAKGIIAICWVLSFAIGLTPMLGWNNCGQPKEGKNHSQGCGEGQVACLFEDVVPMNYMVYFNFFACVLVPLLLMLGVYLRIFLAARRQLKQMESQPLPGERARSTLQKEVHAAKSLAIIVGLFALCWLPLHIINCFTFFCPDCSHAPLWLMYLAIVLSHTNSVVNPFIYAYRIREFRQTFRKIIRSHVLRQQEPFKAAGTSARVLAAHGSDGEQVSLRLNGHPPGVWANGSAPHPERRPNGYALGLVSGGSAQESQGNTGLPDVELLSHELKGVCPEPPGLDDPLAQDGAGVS
Method: as §1

[3] = target: T3, Rat A1 AR (Rattus norvegicus, UniProt P25099); assay: Radioligand binding assay 1, rat A1 adenosine receptor; details: rat cortex, [3H]CCPA
T3 construct: Rat brain preparations were used for A1- and A2A adenosine receptor (AR); from tissue; host or cells: rat cortex
T3 sequence (P25099 1-326): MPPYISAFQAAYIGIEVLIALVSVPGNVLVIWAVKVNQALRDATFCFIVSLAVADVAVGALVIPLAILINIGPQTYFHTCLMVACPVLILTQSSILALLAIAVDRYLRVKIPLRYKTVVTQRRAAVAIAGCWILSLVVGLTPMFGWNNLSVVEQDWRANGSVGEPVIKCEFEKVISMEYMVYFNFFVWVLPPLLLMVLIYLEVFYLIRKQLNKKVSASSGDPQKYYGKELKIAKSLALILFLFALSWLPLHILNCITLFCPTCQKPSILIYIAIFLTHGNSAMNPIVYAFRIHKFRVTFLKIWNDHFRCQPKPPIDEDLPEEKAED
Method: as §1

[4] = target: T4, Rat A2A AR (Rattus norvegicus, UniProt P30543); assay: Radioligand binding assay 1, rat A2A adenosine receptor; details: rat striatum, [3H]MSX-2
T4 construct: A2A adenosine receptors from rat striatum; from tissue; host or cells: rat striatum
T4 sequence (P30543 whole entry): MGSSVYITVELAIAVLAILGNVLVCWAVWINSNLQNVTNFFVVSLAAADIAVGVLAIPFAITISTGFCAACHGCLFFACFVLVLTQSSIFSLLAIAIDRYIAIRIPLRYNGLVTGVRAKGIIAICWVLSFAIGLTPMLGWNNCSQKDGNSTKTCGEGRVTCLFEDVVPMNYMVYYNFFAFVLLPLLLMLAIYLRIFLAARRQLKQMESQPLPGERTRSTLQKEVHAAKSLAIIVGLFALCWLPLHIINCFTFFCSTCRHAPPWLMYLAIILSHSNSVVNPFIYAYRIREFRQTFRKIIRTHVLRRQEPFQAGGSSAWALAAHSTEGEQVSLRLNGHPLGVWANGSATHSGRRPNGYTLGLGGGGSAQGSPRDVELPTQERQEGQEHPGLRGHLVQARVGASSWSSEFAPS
Method: as §1

| Compound | Ki [1] [nM] | Ki [2] [nM] | Ki [3] [nM] | Ki [4] [nM] |
| --- | --- | --- | --- | --- |
| C#CCn1c(=O)c2c(nc(C#Cc3ccc(OC)c(OC)c3)n2C)n(CC#N)c1=O [drawing 576] | > 1000 | 32.2 ± 20.5 | – | – |
| C#CCn1c(=O)c2c(nc(C#Cc3cccc(OCCOC)c3)n2C)n(C)c1=O [drawing 559] | > 1000 | 28.9 ± 1.3 | – | – |
| C#CCn1c(=O)c2c(nc(C#Cc3cncn3C)n2C)n(CC)c1=O [drawing 600] | – | 82.1 ± 26 | – | – |
| C#CCn1c(=O)c2c(nc(C#Cc3ccc(OC)c(OC)c3)n2C)n(CCCOP(=O)(O)O)c1=O [drawing 570] | – | 50.7 ± 21.2 | – | – |
| C#CCn1c(=O)c2c(nc(C#Cc3ccc(OC)c(OC)c3)n2C)n(CCO)c1=O [drawing 575] | > 1000 | 59.8 ± 35.7 | – | – |
| C#CCn1c(=O)c2c(nc(C#Cc3ccc(OC)c(OC)c3)n2C)n(C(C)C)c1=O [drawing 586] | > 1000 | 127 ± 19 | – | – |
| C#CCn1c(=O)c2c(nc(C#Cc3cccc(OC)c3)n2C)n(CCO)c1=O [drawing 572] | – | 165 ± 14 | – | – |
| C#CCn1c(=O)c2c(nc(C#Cc3ccc(OC)c(OC)c3)n2C)n(CCC2CO2)c1=O (centres unmarked) [drawing 580] | – | 96.3 ± 3.1 | – | – |
| C#CCn1c(=O)c2c(nc(C#Cc3cccc(OCCCO)c3)n2C)n(C)c1=O [drawing 596] | – | 299 ± 72 | – | – |
| C#CCn1c(=O)c2c(nc(C#Cc3ccc4c(c3)OCO4)n2C)n(C)c1=O [drawing 561] | – | 52.3 ± 13.4 | – | – |
| C#CCn1c(=O)c2c(nc(C#Cc3ccc(OC)c(OC)c3)n2C)n(CC(C)O)c1=O (centres unmarked) [drawing 578] | > 1000 | 14 ± 4.1 | – | – |
| C#CCn1c(=O)c2c(nc(C#Cc3cccc(C)c3)n2C)n(C)c1=O [drawing 555] | > 10000 | 225 ± 52 | – | – |
| C#CCn1c(=O)c2c(nc(C#Cc3ccc(OC)c(OC)c3)n2C)n(CC)c1=O [drawing 567] | > 1000 | 17.7 ± 0.7 | – | – |
| C#CCn1c(=O)c2c(nc(C#Cc3ccc(OC)c(OC)c3)n2C)n(CCC)c1=O [drawing 584] | > 1000 | 36.6 ± 8.7 | – | – |
| C#CCn1c(=O)c2c(nc(C#Cc3cccc(OCc4ccoc4)c3)n2C)n(C)c1=O [drawing 562] | > 1000 | < 10 | – | – |
| C#CCn1c(=O)c2c(nc(C#Cc3cccc(OCCCN(C)C)c3)n2C)n(C)c1=O [drawing 558] | 1740 ± 546 | 11.6 ± 2.1 | – | – |
| C#CCn1c(=O)c2c(nc(C#Cc3ccc(OC)c(OC)c3)n2C)n(CC(=O)OC)c1=O [drawing 598] | > 1000 | 38.2 ± 8.5 | – | – |
| C#CCn1c(=O)c2c(nc(C#Cc3ccc(OC)c(OC)c3)n2C)n(Cc2cccs2)c1=O [drawing 589] | > 1000 | 416 ± 44 | – | – |
| C#CCn1c(=O)c2c(nc(C#Cc3cccc(OC)c3)n2C)n(CCCO)c1=O [drawing 564] | > 3000 | 5.5 ± 1.4 | – | – |
| C#CCn1c(=O)c2c(nc(C#Cc3ccc(OC)c(OC)c3)n2C)n(CC(C)=O)c1=O [drawing 592] | – | 273 | – | – |
| C#CCn1c(=O)c2c(nc(C#Cc3ccc(OC)c(OC)c3)n2C)n(C(C)C(C)=O)c1=O (centres unmarked) [drawing 591] | – | 54 | – | – |
| C#CCn1c(=O)c2c(nc(C#Cc3cccc(OC)c3)n2C)n(CCN(C)C)c1=O [drawing 594] | – | 569 ± 10.7 | – | – |
| C#CCn1c(=O)c2c(nc(C#Cc3cccc(OCCOC)c3)n2C)n(C)c1=O [drawing 471] | – | – | ≥ 10000 | 219 ± 52 |
| C#CCn1c(=O)c2c(nc(C#Cc3cccc(OC)c3)n2C)n(CCC2OCCO2)c1=O | – | – | ≥ 1000 | 120 ± 18 |
| C#CCn1c(=O)c2c(nc(C#Cc3ccccc3)n2C)n(C)c1=O [drawing 452] | – | – | > 1000 | 186 ± 60 |
| C#CCn1c(=O)c2c(nc(C#Cc3ccc(OC)c(OC)c3)n2C)n(CCC2CO2)c1=O (centres unmarked) [drawing 505] | – | – | 64 ± 5.4 | 19.2 ± 1.4 |
| C#CCn1c(=O)c2c(nc(C#Cc3ccc(OC)c(OC)c3)n2C)n(C)c1=O [drawing 601] | – | 89.7 ± 16.1 | – | – |
| C#CCn1c(=O)c2c(nc(C#Cc3cccc(OC)c3)n2C)n(CC#C)c1=O | – | – | > 10000 | 80.7 ± 21.1 |
| C#CCn1c(=O)c2c(nc(C#Cc3ccc(OC)c(OC)c3)n2C)n(CC(=O)O)c1=O | – | – | > 1000 | 272 ± 57 |
| C#CCn1c(=O)c2c(nc(C#Cc3ccc(OC)c(OC)c3)n2C)n(CC#N)c1=O [drawing 500] | – | – | > 1000 | 40 ± 0.6 |

From patent publication US20080221134A1, “8-ALKYNYLXANTHINES AND DERIVATIVES” (priority 2006, published 2008)
